Source: publication PMC11395237, “Characteristics of a Novel Zearalenone Lactone Hydrolase ZHRnZ and Its Thermostability Modification” (International Journal of Molecular Sciences, 2024)

What was measured:
Experiment in all cases: HPLC-fluorescence of residual substrate
Format in all cases: biochemical
Settings in all cases: read-out: Km (μg.mL^-1); pH 9.0, 45 °C, 10 min, 25 μg/mL enzyme, 10-60 μg/mL ZEN
[1] = biological target: T1, ZHRnZ (Rosellinia necatrix, UniProt A0A1W2TNW3)
T1 construct: gene SAMD00023353_4301030; His-tag from pET28a (BamHI/XhoI), codon-optimized gene, E. coli BL21(DE3), Ni-NTA purified; homodimer by homology model
T1 sequence (A0A1W2TNW3 entry or part of it): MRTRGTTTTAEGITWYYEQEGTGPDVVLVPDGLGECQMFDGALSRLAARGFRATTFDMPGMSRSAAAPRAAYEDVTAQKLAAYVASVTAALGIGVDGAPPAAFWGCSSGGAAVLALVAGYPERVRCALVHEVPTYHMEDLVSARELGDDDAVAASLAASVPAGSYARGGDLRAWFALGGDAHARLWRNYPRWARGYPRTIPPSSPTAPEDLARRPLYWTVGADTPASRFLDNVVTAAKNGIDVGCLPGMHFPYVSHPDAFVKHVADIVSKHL
Source text: (§1) HPLC-fluorescence of residual substrate on ZHRnZ

[2] = biological target: T2, ZHRnZ (Rosellinia necatrix, UniProt A0A1W2TNW3, E122Q)
T2 construct: gene SAMD00023353_4301030; His-tag from pET28a (BamHI/XhoI), codon-optimized gene, E. coli BL21(DE3), Ni-NTA purified; homodimer by homology model
T2 sequence (A0A1W2TNW3 whole entry E122Q): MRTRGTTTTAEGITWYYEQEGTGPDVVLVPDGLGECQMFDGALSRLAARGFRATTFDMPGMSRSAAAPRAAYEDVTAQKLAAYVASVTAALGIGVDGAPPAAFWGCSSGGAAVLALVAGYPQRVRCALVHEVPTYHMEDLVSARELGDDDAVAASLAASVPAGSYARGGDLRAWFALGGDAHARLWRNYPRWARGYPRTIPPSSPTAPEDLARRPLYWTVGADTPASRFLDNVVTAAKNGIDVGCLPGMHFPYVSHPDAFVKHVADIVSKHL
Source text: as §1

[3] = biological target: T3, ZHRnZ (Rosellinia necatrix, UniProt A0A1W2TNW3, E122R)
T3 construct: gene SAMD00023353_4301030; His-tag from pET28a (BamHI/XhoI), codon-optimized gene, E. coli BL21(DE3), Ni-NTA purified; homodimer by homology model
T3 sequence (A0A1W2TNW3 whole entry E122R): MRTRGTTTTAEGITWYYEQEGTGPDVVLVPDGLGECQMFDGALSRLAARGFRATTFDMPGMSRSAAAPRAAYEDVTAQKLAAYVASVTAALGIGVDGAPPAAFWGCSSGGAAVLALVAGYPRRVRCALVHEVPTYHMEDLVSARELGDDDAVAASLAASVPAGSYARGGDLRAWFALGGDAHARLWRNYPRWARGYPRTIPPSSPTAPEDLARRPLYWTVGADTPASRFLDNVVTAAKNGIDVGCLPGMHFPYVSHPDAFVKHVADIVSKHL
Source text: as §1

## C[C@H]1CCCC(=O)CCC/C=C/c2cc(O)cc(O)c2C(=O)O1 [ZEN]
[1]
  Km: 67.6 µM
[2]
  Km: 271 µM
[3]
  Km: 25.5 µM
